One assay deals with human Neurons. Kind of assay: Dunn chamber migration assay (chemotaxis of immature neurons). Particulars: BIBF1120 (2 μg), 6 h recording; for chemotactic response of human neurons towards FGF2 gradient in presence of inhibitor: FGF2 200 ng/ml in outer well; for chemotactic response of human neurons towards VEGF gradient in presence of inhibitor: VEGF 200 ng/ml in outer well. Type of assay: cell-based. The method, then: FIG. 7A Dunn chamber migration assay. Schematic representation of a direct-viewing Dunn chemotaxis chamber showing the position of the inner well, the bridge, the outer well and the overlying coverslip (a) (Zicha et al., 1991 1998, Zhang et al., 2003). Adopted from Hawksley. Calculation of the forward migration index (FMI) during a 6 h recording period. FMI values can be either positive or negative, depending on the direction in which the cell is migrating (b).
FIG. 7B Directionality analysis of cell movement using scatter plots of cell displacement (c-i). The diagrams orientate such that the position of the outer well of the chamber are vertical (y direction). Each point represents the final position of a cell at the end of the recording period of 6-h; the starting point of migration is fixed at the intersection of the two axes. As control migration of human neurons was monitored in medium only (c). For assessing chemokinesis, equal amounts of FGF2 (d) or VEGF (e) were added to both the outer and the inner wells of the chamber. Chemotaxis was tested by placing FGF2 (f) or VEGF (g) in the outer well only. Migration of human neurons treated with BFBF1120 was monitored towards a FGF2 (h) and VEGF (i) gradient.
Chemotaxis of immature neurons was directly viewed and recorded in stable concentration gradients of FGF2 (200 ng/ml) or VEGF (200 ng/ml), respectively, with or without the addition of BIBF1120 ([…]) using a Dunn chemotaxis chamber (Allen et al., 1998 1998, Zhang et al., 2003). This device is made from a Helber bacteria counting chamber by grinding a circular well in the central platform to leave a 1 mm-wide annular bridge between the inner and the outer well. Chemoattractants added to the outer well of the chamber will diffuse across the bridge to the inner well and form a linear steady gradient within ˜30 min after loading the chamber (Zicha et al., 1991; Webb et al., 1996). To study chemotaxis, the outer well of the Dunn chamber can be filled with medium containing a chemoattractant, whereas the concentric inner well is filled with medium only. Coverslips carrying the cultured cells are inverted and placed onto the chamber. Cell locomotion is recorded through the annular bridge between the concentric inner and outer well. For assessing chemokinesis, the outer and inner wells are filled with equal concentrations of the chemoattractant. A period of 6 h was chosen to assess cell migration.
To determine the efficiency of forward migration during the 6 h recording period, the FMI was calculated as the ratio of forward progress to the total path length (Foxman et al., 1999; Zhang et al.).

For assay [1], the system named is lt-hESNSC mixed with immature neurons on hippocampal rat slice cultures. The assay is described as follows: Transplantation onto rat hippocampal slice cultures (migration of human neurons from mixed grafts). It is filed as cell-based. Particulars: 2 μg/ml BIBF1120, day 7. The method, then:
Using a vibroslicer, 400 μm horizontal sections were generated from the hippocampus of 9-10 day-old Wistar rats. The slices included the dentate gyrus and the entorhinal and temporal cortex (Scheffler et al., 2003; Opitz et al., 2007). They were transferred onto a polyester membrane and cultivated at 35° C., 5% CO2 and saturated air humidity in an initial culture medium containing 25% normal horse serum, which was gradually replaced after 3-5 days by chemically defined, serum-free culture medium based on DMEM/F12, N2 supplement and B27 supplement. Medium was changed every other day and 5-7 days after explantation a cell suspension of 50 000 cells in a 1 μl volume was spotted onto the entorhinal cortex of the slice using an injection device.
For immunohistochemical analysis of slice cultures (FIG. 4), cultures were fixed in 4% paraformaldehyde for 4 hours and subsequently washed several times with PBS. Slices were permeabilized/blocked with 0.1% Triton X-100+10% FCS for 6 hours at 25° C. Incubation with primary antibody was for 16 hours at room temperature, followed by washing steps with PBS for 5 hours. Incubation with the secondary antibodies was for 2 hours at room temperature.
To further investigate whether endostatin can also interfere with the chemoattractive effect of neural stem/progenitor cells on immature neurons in a context closer to an in vivo situation, hippocampal rat slice culture experiments were performed. HES-NSC70+N30 were pre-incubated for 30 minutes in 30 μl Cytocon™-Buffer II with either 2 μl stock solution endostatin (n=9) or with 2 μl of the solvent of endostatin (citric-phosphate buffer) as control (n=9), and then deposited on the entorhinal cortex of hippocampal slice cultures. Cultures of pure human neurons were transplanted as positive control (n=9). The slices were further cultured for 18 days after deposition of the cells. 1 μl/ml endostatin stock solution was continuously applied every day to the slice media.
To further investigate whether BIBF1120 can also interfere with the chemoattractive effect of neural stem/progenitor cells on immature neurons, hippocampal rat slice culture experiments were performed. Lt-hESNSC mixed with purified DCX-EGFP positive neurons (30.0000 lt-hESNSC mixed with 100.000 purified neurons per μl) were pre-incubated for 30 min. in Cytocon™-Buffer II with or without 2 μg/ml BIBF1120, respectively, and then deposited on the entorhinal cortex (EC) of hippocampal slice cultures. The slices were further cultured for 7 days after deposition of the cells. 2 μg/ml BIBF1120 was continuously applied every day to the slice media.

The test system of assay [2] is lt-hESNSC. Kind of assay: BrdU cell proliferation assay. It is filed as cell-based, human. The following applies: BIBF1120 2 μg/ml for 20 h; BrdU 2.5 h. As for the experimental part: (§1) FIG. 9 The effect of BIBF1120 on lt-hESNSC proliferation and differentiation. The proliferative effect was measured in a BrdU proliferation assay of lt-hESNSC, either with or without BIBF1120 (a). Bars represent the percentage of BrdU positive cells, cultured for 20 hours in NSC-medium or in NSC-medium with BIBF1120 (2 μg/ml) and treated for 2.5 h with BrdU. The neurogenic effect of BIBF1120 on lt-hESNSC was studied (b). Bars represent the percentage of βIII tubulin-positive neurons in lt-hESNSC cultured for 10 days in neuronal generation medium or in neuronal generation medium with BIBF1120 (2 μg/ml).
For BrdU staining (FIG. 6A) 0.5% Triton X-100 in PBS was used for permeabilizing the cells. After washing, cells were incubated with 2 M HCl for 10 minutes, washed in PBS, equilibrated using 0.1 M borate buffer, washed again in PBS, followed by an incubation with the primary antibody diluted in blocking solution at room temperature over night. Staining with the secondary antibody was performed as described.
5′-bromo-T-deoxyuridine (BrdU) is a thymidine analog that incorporates into dividing cells during DNA synthesis. To determine whether BIBF1120 has an influence on the proliferation rate of lt-hESNSC, cells were cultured under neural proliferation medium with or without BIBF1120 (2 μg/ml) for 20 h. BrdU was added to the culture medium for 2.5 h. […]

The test system of assay [3] is mitogen-activated protein kinase (MAPK) and Akt signalling pathways. The following applies: after 1-hour treatment; cell culture; cited from earlier work.
For assay [4], the system named is lt-hESNSC. Kind of assay: Neurogenesis assay (differentiation in neuronal generation medium). The following applies: 10 days in neuronal generation medium with BIBF1120 (2 μg/ml). Type of assay: cell-based, human. As for the experimental part:
as §1
Differentiation was studied by a neurogenesis assay. In this assay lt-hESNSC were cultured for 10 days in neuronal generation medium or in neuronal generation medium with BIBF1120 (2 μg/ml), fixed and stained for […].

For the molecule `COC(=O)c1ccc2c(c1)NC(=O)/C2=C(\Nc1ccc(N(C)C(=O)CN2CCN(C)CC2)cc1)c1ccccc1` [BIBF1120, 3-Z-[1-(4-(N-((4-methyl-piperazin-1-yl)-methylcarbonyl)-N-methyl-amino)-anilino)-1-phenyl-methylene]-6-methoxycarbonyl-2-indolinone], in the assay on human Neurons, the “chemotactic response of human neurons towards FGF2 gradient in presence of inhibitor” value is “lost their chemotactic response” and the “chemotactic response of human neurons towards VEGF gradient in presence of inhibitor” value was “lost their chemotactic response”. Besides, in the assay with human Neurons (listed as BFBF1120), the “chemotactic response of human neurons towards FGF2 gradient in presence of inhibitor” value is given as “loose this chemotactic response” and the “chemotactic response of human neurons towards VEGF gradient in presence of inhibitor” value is given as “loose this chemotactic response”. In addition, in assay [1], the “migration along the z-axis” value is “easily migrated throughout the entire slice tissue”; the “total number of human neurons within 10 μm thick optical plane, bottom of the slice” value is listed as 14±7.8; the “total number of human neurons within 10 μm thick optical plane, middle of the slice” value was found to be 14.6±6.1. The “number of neurons migrated beyond a 250 μm perimeter around the deposition site, increase vs control” value in assay [1] (xy-axis) was “two-fold increase”. In addition, the “migration horizontally over the slice compared to control population” value in assay [1] (lt-hESNSC mixed with purified neurons) is “enhanced migration and integration capacity”. Also, the “proliferation rate (BrdU positive cells) vs untreated control” value with lt-hESNSC [2] is listed as “no significant difference”. Also, the “duration of sustained pathway inhibition” value in assay [3] is “up to 32 hours”. Besides, in the assay on lt-hESNSC [4], the “differentiation (βIII tubulin-positive neurons)” value is reported as “not significantly influenced”.

(Values after patent US9844572B2, “Promotion of neuronal integration in neural stem cell grafts” (Life & Brain GmbH, priority 2009, dated 2017).)
